Measurements reported in US20140050778A1, “NUCLEIC ACID BINDING COMPOUNDS, METHODS OF MAKING, AND USE THEREOF” (UNIVERSITY OF ROCHESTER, priority 2010, published 2014).

Experiments:
[1] = biological target: (CUG)10 RNA; assay: Fluorescence titration (benzo[g]quinoline quenching); format: binding; settings: (CUG)10, 1 μM compound in HBS-N, read-out: Apparent KD
Method: The benzo[g]quinoline moiety is fluorescent, with excitation and emission maxima at 362 nm and 439 nm respectively in methanol. Fluorescence titration binding measurements were performed on a Cary Eclipse fluorescence spectrophotometer using a 10 mm path-length semimicro quartz fluorescence cell with 400 μL sample holding capacity. Absorbance measurements were carried out on a UV-Visible spectrophotometer (Shimadzu, UV-1601PC) using a 1 mL (1 cm path-length) quartz cell. Spectroscopic grade anhydrous methanol used in the measurement of relative quantum yield of the 2-ethyl benzo[g]quinoline carboxylic acid was purchased from Alfa Aesar and was used without further purification. For these measurements, known procedures were used (Lee and Grissom, “Design, Synthesis, and Characterization of Fluorescent Cobalamin Analogues with High Quantum Efficiencies,” Org. Lett. 11:2499-2502 (2009); Joseph R. Lakowicz, Principles of Fluorescence Spectroscopy, 2nd edition (Kluwer Academic/Plenum Publishers, 1999), which are hereby incorporated by reference in their entirety). Briefly, RNA (10 μM stock) in HBS-N buffer was titrated into a solution of 1 μM compound in HBS-N. After each addition of RNA, ten minutes were allowed for equilibration before recording the change in fluorescence at 468.5 nm. Fluorescence units (“FU”) were then corrected for dilution and the FU after each addition was subtracted from the FU at zero RNA concentration to give AFU. Following saturation, AFU was plotted against RNA concentration using Origin 7 (OriginLab, Inc.), and fitted to a 1:1 Langmuir binding model to obtain apparent dissociation constants (Kn). […]
Selected equilibrium affinities for (CUG)10 were confirmed by fluorescence titration. The quantum yield of the ethylbenzo[g]quinoline carboxylic acid (compound 2), relative to quinine sulfate, was determined to be 0.64 (FIGS. 5A-F). […] Apparent KD values measured in this manner are consistent with those obtained by SPR (Table 6); that they are not identical to SPR-measured values likely results from the differing formats of the two methods. […]

[2] = test system: (CCUG)10 RNA (SEQ ID NO: 4); assay: SPR binding to immobilized biotinylated RNA; settings: (CCUG)10; for Off-rates (koff) / On-rates (kon): SPR
Method: (§1) SPR binding measurements were performed on a Biacore-X instrument (Biacore, Inc., Uppsala, Sweden) with two flow channels (FC1 and FC2). 5′-Biotinylated-RNA sequences, with a C6 linker separating the biotin label from the RNA (Integrated DNA Technologies Inc.) were immobilized on streptavidin (Rockland Immunochemicals) functionalized carboxylmethyl dextran coated sensor chips (CM5, G.E. Healthcare) using EDC/NHS (Advanced ChemTech) coupling chemistry. Filtered (0.2μ), degassed and autoclaved HBS-N buffer (0.01M Hepes, pH=7.4, 0.15 M NaCl) was employed as sample and as running buffer for all SPR experiments. A typical protocol for an experiment is as follows: A CM5 sensor chip was allowed to equilibrate to room temperature and then docked into the instrument. Following priming with running buffer, FC1 and FC2 were conditioned by manual injection of 20 μL aqueous NaOH (50 mM) at a flow rate of 30 μL/min. This was repeated 3 times followed by a wash command. Next, the carboxyl groups on the sensor chip surface in both flow cells were activated separately by injecting 60 μL of freshly prepared 1:1 mixture of EDC (0.4 M) and NHS (0.1 M) at a 5 μL/min flow rate followed by a wash. […] After washing, the surface was deactivated with 60 μL injection of ethanolamine (1M, pH=8.5) at 5 μL/min. The flow cells were primed, and the streptavidin surface in FC1 alone was blocked with 30 μL of biotin (20 μM in HBS-N) at 5 μL/min. The RNA (200 nM in running buffer, HBS-N) to be immobilized was unfolded by heating above its predicted melting temperature in a heated block for 2 min and then allowed to refold by cooling gradually to room temperature. The RNA was then immobilized in FC2 alone to response units ranging from 200-1000 RU using a 5 μL/min flow rate. Representative sensorgrams for the immobilization procedure is shown in FIGS. 2A-B. Two 20 μL aliquots of NaCl (0.5 M) were injected at a 30 μL/min flow rate to remove non-specifically bound RNA. The level of RNA immobilized was noted when the baseline was stable, usually after repeated buffer injection followed by a “prime” command. Binding measurements were performed by flowing various concentrations of the compounds to be analyzed over the immobilized RNA and recording the reference-subtracted (FC2−FC1) sensorgrams. For kinetic analysis, at least five sensorgrams corresponding to different concentrations of compound (usually ranging from 0.05-1 μM in HBS-N) were obtained using flow rates of either 60 μL/min or 30 μL/min. The experimental sensorgrams were globally fitted to a 1:1 binding equation (Biaevaluation software) to obtain association rates (ka) and dissociation rates ([…]) as well as equilibrium binding constants (KD). To measure the binding stoichiometry (n), the relations in equations (1-3) below were used: […]
(§2) where RUmax is the maximum resonance response unit at saturation, RURNA is the amount RU of RNA immobilized, n is the stoichiometry, MWcompound and MWRNA are molecular weights of compound and RNA respectively, and RUeq represents the resonance response at steady-state (equilibrium). The response units at equilibrium were subjected to Scatchard binding plots of (r/Cfree vs. r).
(§3) The binding characteristics of compounds 3-11 were evaluated against pathogenic CUG^exp RNA and other RNA sequences by SPR. This technique allows the association and dissociation rates (ka and kd), equilibrium binding constants (KD), and the binding stoichiometry (n) to be measured in a label-free format (Liu and Wilson, “Quantitative Analysis of Small Molecule-nucleic Acid Interactions with a Biosensor Surface and Surface Plasmon Resonance Detection,” Methods Mol. Biol. 613:1-23 (2010), which is hereby incorporated by reference in its entirety). […]

[3] = test system: (CUG)2 RNA (SEQ ID NO: 1); assay: SPR binding to immobilized biotinylated RNA; settings: for Off-rates (koff) / On-rates (kon): SPR; for ka / kd: Table 7, SPR
Method: as §1, §2, §3

[4] = test system: (CAG)10 RNA (SEQ ID NO: 5); assay: SPR binding to immobilized biotinylated RNA; settings: for Off-rates (koff) / On-rates (kon): SPR
Method: as §1, §2, §3

[5] = test system: CUG-CAG duplex ("Duplex") (SEQ ID NO: 6); assay: SPR binding to immobilized biotinylated RNA; settings: for Residence time (t1/2) for compound binding to RNA / Off-rates (koff) / On-rates (kon): Duplex
Method: as §1, §2, §3

[6] = test system: (CUG)4 RNA (SEQ ID NO: 2); assay: SPR binding to immobilized biotinylated RNA; settings: for Off-rates (koff) / On-rates (kon): SPR
Method: as §1, §2, §3

Row | Structure (SMILES) | Kd [1] [nM] | Residence time (t1/2) for compound binding to RNA [2] [min] | Off-rates (koff) [2] [s⁻¹] | On-rates (kon) [2] [M⁻¹ s⁻¹] | Residence time (t1/2) for compound binding to RNA [3] [min] | Off-rates (koff) [3] [s⁻¹] | On-rates (kon) [3] [M⁻¹ s⁻¹] | ka [3] | kd [3] | Residence time (t1/2) for compound binding to RNA [4] [min] | Off-rates (koff) [4] [s⁻¹] | On-rates (kon) [4] [M⁻¹ s⁻¹] | Residence time (t1/2) for compound binding to RNA [5] [min] | binding to duplex CUG-CAG stronger than the E isomer, compound 5 ([5]; SPR) | Off-rates (koff) ([5]; SPR) [s⁻¹] | On-rates (kon) ([5]; SPR) [M⁻¹ s⁻¹] | Residence time (t1/2) for compound binding to RNA [6] [min] | Off-rates (koff) [6] [s⁻¹] | On-rates (kon) [6] [M⁻¹ s⁻¹]
1 | CCc1nc2cc3ccccc3cc2cc1C(=O)N1CCC[C@H]1C(=O)N[C@@H](C/C=C\C[C@H](NC(=O)[C@@H]1CCCN1C(=O)c1cc2cc3ccccc3cc2nc1CC)C(=O)N[C@@H](CCCCN)C(=O)NCCCN)C(=O)N[C@@H](CCCCN)C(=O)NCCCN [Compound 4] | 66.3 ± 2.1 | 6.2772 | 0.00184 | 60100 | 13.08 | 0.000883 | 24500 | ka = 2.45E+4/M * s | kd = 8.83E−4/s | 3.9965 | 0.00289 | 35600 | 7.549 | approximately 5.7 fold | 0.00153 | 29500 | 7.0858 | 0.00163 | 42400
2 | CCc1nc2cc3ccccc3cc2cc1C(=O)N1CCC[C@H]1C(=O)N[C@@H](C/C=C/C[C@H](NC(=O)[C@@H]1CCCN1C(=O)c1cc2cc3ccccc3cc2nc1CC)C(=O)N[C@@H](CCCCN)C(=O)NCCCN)C(=O)N[C@@H](CCCCN)C(=O)NCCCN [Compound 5] | 70.4 ± 1.1 | 11.702 | 0.000987 | 49700 | 15.02 | 0.000769 | 20100 | ka = 2.01E+4/M * s | kd = 7.69E−4/s | 4.2308 | 0.00273 | 50200 | 3.0078 |  | 0.00384 | 15000 | 8.3093 | 0.00139 | 30100
